# In patent US10150795B2, “Peptide having antimicrobial activity against pathogens and antimicrobial peptide composition comprising the same” (Hankuk University of Foreign Studies Research & Business …, priority 2016, dated 2018):
# Ends that are not written are not given here.
# Key:
# [1] = at a concentration of 200 μM or less; cited from earlier work
# [2] = test system: gram-positive and gram-negative bacteria; conditions: cited from earlier work
# in vitro [3] = assay type: cell-based
# Method: (§1) A cytotoxicity experiment was performed by a test method using a Cyto X™ cell viability assay kit (LPS SOLUTION). A 96-well cell culture plate was purchased from Corning, and mammalian cell lines were purchased from the American Type Culture Collection (ATCC). Also, the CytoX™ cell viability assay kit was purchased from LPS SOLUTION.
# (§2) As an experimental method, stored frozen cells were thawed, cultured in a DMEM or RP 11640 medium supplemented with 10% FBS, and then sub-cultured at intervals of 2 to 3 days until a density of the cells reached 80 to 90%. For this experiment, the cells were detached by treating the cells with trypsin-EDTA, and then divided into wells of a 96-well plate so that the number of the cells amounted to 10,000 cells. Thereafter, the cells were cultured at 37° C. for 24 hours in a CO2 incubator. Each of the prepared peptides was diluted with DMSO to concentrations of 10, 1, 0.1, 0.01, and 0.001 mM, and then diluted at 1:100 by adding 1 μl of DMSO or each of the prepared peptides to each well. Then, the cells were cultured at 37° C. for 24 hours in a CO2 incubator. To measure cytotoxicity, 10 μl of each of the peptides prepared using the Cyto X™ cell viability assay kit (LPS SOLUTION) was added to each well. The cells were cultured at 37° C. for 1 to 4 hours in a CO2 incubator, and an optical density was measured at 450 nm using a microplate reader. Then, the measured optical density was calculated as a percentage of a value measured for DMSO, and a graph was plotted using GraphPad Prism 5. Then, an IC50 value was calculated. When each of the IC50 values of the four peptides in each cell line was greater than or equal to 10 μM, the peptides were judged to have no general cytotoxicity.
# CHO-K1 cell line = assay: in vitro; assay type: cell-based
# Method: as §1, §2
# in vitro [4] = assay type: cell-based; conditions: mouse
# Method: as §1, §2
# [5] = test system: Listeria innocua MC2 KCTC 3658, Staphylococcus aureus ATCC 6538, Pseudomonas aeruginosa ATCC 27853, Salmonella ATCC 19430, Escherichia coli KCTC 1682; assay: Minimal inhibitory concentration, standard broth microdilution method; assay type: cell-based; conditions: five strains, 37° C., 12 hours
# Method: An antimicrobial assay was performed by measuring a minimal inhibitory concentration (MIC) value using a standard broth microdilution method. The antimicrobial activity of each of the peptides was measured using two gram-positive bacteria (Listeria innocua MC2 KCTC 3658 and Staphylococcus aureus ATCC 6538) and three gram-negative bacteria (Pseudomonas aeruginosa ATCC 27853, Salmonella ATCC 19430, and Escherichia coli KCTC 1682). 50 μl of each of the five bacterial strains were prepared, mixed with 5 ml of 3.7% BHI, and then cultured overnight under conditions of 37° C. and 240 rpm. Thereafter, 50 μl of each of the cultured bacterial strains was mixed with 5 ml of 3.7% BHI, and cultured for 2 hours under conditions of 37° C. and 240 rpm. Each of the cultured bacterial strains was diluted with a 0.037% BHI solution to a concentration of 1×10^8 CFU/ml.
# A dissolved synthetic peptide was diluted twofold, stepwise, with BHIB in a 96 well-plate. […] After the incubation, a change in optical density at 600 nm was measured using Microplate Reader Multiskan FC (Thermo Scientific, Waltham, Mass., USA), and a range of the MIC was set as the lowest concentration of a peptide in which the growth of bacteria starts to be inhibited. […]
Substance,hemolytic action [1],growth inhibition / antimicrobial functionality [2],IC50 at 24 h (in vitro [3]; African green monkey) [µM],IC50 at 24 h (in vitro [3]; Chinese hamster) [µM],IC50 at 24 h (in vitro [3]; human) [µM],IC50 at 24 h (in vitro [3]; mouse) [µM],cytotoxicity compared with YK3 (CHO-K1 cell line),IC50 at 24 h (in vitro [4]) [µM],"antibacterial activity (MIC experiment, FIG. 2) [5]"
"NTVKETIKYLKSLFSHAFEVVKT (NTVKETIKYLKSLFSHAFEVVKT; LPcin-1 (23mer)) [LPcin-I, wild-type lactophoricin from cow milk, 23 amino acid residues, carboxyl terminal 113 to 135 region of PP3]",does not have a hemolytic action,inhibits the growth of both gram-positive and gram-negative bacteria,–,–,–,–,–,–,–
"NKVKEWIKYLKSKFK [YK8, NKVKE WIKYL KSKFK]",–,–,> 100,71.9,> 100,> 100,lower cytotoxicity than the YK3 peptide,> 100,–
"NKVKEWIKYLKSLFS [YK3, NKVKE WIKYL KSLFS]",–,–,99.1,56.2,94,–,–,–,–
"H-NKVKEWIKYLKSLFK-OH [YK5, NKVKE WIKYL KSLFK]",–,–,> 100,57,> 100,> 100,lower cytotoxicity than the YK3 peptide,> 100,effective antibacterial activity against the five strains when used at a low concentration
"NKVKEWWKWLKKL [YK11, NKVKE WWKWL KKL]",–,–,83.7,86.8,> 100,> 100,lower cytotoxicity than the YK3 peptide,96.6,–
